Assay results reported in ChEMBL document CHEMBL4261624, “Resveratrol-maltol hybrids as multi-target-directed agents for Alzheimer's disease” (Bioorg Med Chem, 2018).
The source made the active and inactive calls. The calls are words filed in the database; no cut-off is given here.

How the values were obtained:
[1] = target: T1, Amyloid-beta precursor protein (Homo sapiens, UniProt P05067); experiment: Inhibition of HFIP-pretreated amyloid beta (1 to 42) (unknown origin) self-induced aggregation at 20 uM after 24 hrs by thioflavin-T fluorescence assay relative to control
[2] = Antioxidant activity assessed as ABTS radical scavenging activity incubated for 10 mins in dark; assay type: functional
[3] = target: T1, Amyloid-beta precursor protein; experiment: Inhibition of HFIP-pretreated amyloid beta (1 to 42) (unknown origin) self-induced aggregation after 24 hrs by thioflavin-T fluorescence assay
[4] = target: T1, Amyloid-beta precursor protein; experiment: Disaggregation of Cu2+-induced amyloid beta (1 to 42) (unknown origin) preformed fibrils at 50 uM after 24 hrs by uranyl acetate staining based transmission electron microscopic analysis
[5] = Metal chelating activity assessed as inhibition of Cu2+-induced amyloid beta (1 to 42 residues) fibrils at 50 uM after 24 hrs by uranyl acetate staining based transmission electron microscopic analysis
[6] = Metal chelating activity assessed as inhibition of Fe3+-induced amyloid beta (1 to 42 residues) fibrils at 50 uM after 24 hrs by uranyl acetate staining based transmission electron microscopic analysis
[7] = target: T1, Amyloid-beta precursor protein; experiment: Disaggregation of self-induced amyloid beta (1 to 42) (unknown origin) preformed fibrils at 50 uM after 24 hrs by uranyl acetate staining based transmission electron microscopic analysis
[8] = target: T1, Amyloid-beta precursor protein; experiment: Disaggregation of Fe3+-induced amyloid beta (1 to 42) (unknown origin) preformed fibrils assessed as remaining amyloid beta aggregation level at […] after 24 hrs by thioflavin-T fluorescence assay
[9] = target: T1, Amyloid-beta precursor protein; experiment: Disaggregation of Fe3+-induced amyloid beta (1 to 42) (unknown origin) preformed fibrils at 75 uM after 24 hrs by uranyl acetate staining based transmission electron microscopic analysis
[10] = Metal chelating activity assessed as inhibition of Fe3+-induced amyloid beta (1 to 42 residues) fibrils by measuring fluorescence level after 24 hrs by thioflavin-T fluorescence assay; design: scale not given: the % may be the effect or the level left
[11] = Metal chelating activity assessed as inhibition of Cu2+-induced amyloid beta (1 to 42 residues) fibrils after 24 hrs by thioflavin-T fluorescence assay
[12] = target: T1, Amyloid-beta precursor protein; experiment: Disaggregation of Cu2+-induced amyloid beta (1 to 42) (unknown origin) preformed fibrils assessed as remaining amyloid beta aggregation level at […] after 24 hrs by thioflavin-T fluorescence assay
[13] = Metal chelating activity assessed as inhibition of Fe2+-induced amyloid beta (1 to 42 residues) fibrils after 24 hrs by thioflavin-T fluorescence assay
[14] = Metal chelating activity assessed as compound-nitriloacetate Fe3+ complex formation by UV-spectrophotometric analysis

T1 sequence (P05067 whole entry): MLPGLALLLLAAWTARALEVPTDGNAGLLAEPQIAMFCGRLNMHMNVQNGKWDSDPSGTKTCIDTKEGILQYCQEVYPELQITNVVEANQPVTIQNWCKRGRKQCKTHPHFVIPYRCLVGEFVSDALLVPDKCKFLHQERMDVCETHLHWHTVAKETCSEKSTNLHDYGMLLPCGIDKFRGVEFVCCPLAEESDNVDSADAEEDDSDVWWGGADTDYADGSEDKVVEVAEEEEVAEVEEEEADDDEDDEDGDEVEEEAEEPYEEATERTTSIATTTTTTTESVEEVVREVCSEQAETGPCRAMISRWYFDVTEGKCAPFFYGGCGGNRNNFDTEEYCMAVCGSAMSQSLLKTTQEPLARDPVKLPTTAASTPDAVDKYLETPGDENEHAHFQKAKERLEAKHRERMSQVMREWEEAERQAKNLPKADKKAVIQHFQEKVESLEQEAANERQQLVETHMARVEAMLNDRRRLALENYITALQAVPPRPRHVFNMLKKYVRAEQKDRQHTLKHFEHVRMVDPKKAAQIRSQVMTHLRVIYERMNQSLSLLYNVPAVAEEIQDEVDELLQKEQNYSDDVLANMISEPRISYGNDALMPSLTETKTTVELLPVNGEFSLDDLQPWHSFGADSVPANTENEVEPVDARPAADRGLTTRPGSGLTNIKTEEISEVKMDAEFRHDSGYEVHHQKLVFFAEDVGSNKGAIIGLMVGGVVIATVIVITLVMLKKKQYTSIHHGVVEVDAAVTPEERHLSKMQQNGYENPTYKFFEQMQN

O=c1cc(/C=C/c2ccccc2)occ1O gave an inhibition [1] of 42.5% and an IC50 [2] of 2.25 µM.
Work on COc1cc(/C=C/c2cc(=O)c(O)co2)cc(OC)c1 yielded an inhibition [1] of 18.6% and an IC50 [2] of 1.79 µM.
Compound COc1ccccc1/C=C/c1cc(=O)c(O)co1 has an inhibition [1] of 61.1%, an IC50 [3] of 7.93 µM and an IC50 [2] of 3.47 µM.
With Oc1ccc(/C=C/c2cc(O)cc(O)c2)cc1 [RESVERATROL] the Activity [4] was “Active”, the inhibition [5] was “Active” and the inhibition [6] was “Active”. For the same compound, the Activity [7] was “Active”, the Activity [8] was 58% and the IC50 [2] was 0.76 µM. For the same compound, the Activity [9] was “Active”.
With O=c1cc(/C=C/c2cc(O)cc(O)c2)occ1O the inhibition [1] was 56.9%, the IC50 [3] was 17.9 µM and the IC50 [2] was 1.19 µM.
In the case of CCOc1ccc(/C=C/c2cc(=O)c(O)co2)cc1, the inhibition [1] is reported as 38.2% and the IC50 [2] is reported as 4.21 µM.
Work on Cc1c(C)c2c(c(C)c1O)CCC(C)(C(=O)O)O2 (stereo unspecified) [TROLOX] yielded an IC50 [2] of 3.89 µM.
With O=c1cc(/C=C/c2ccccc2O)occ1O the Activity [10] was 16%, the Activity [4] was “Active” and the inhibition [11] was “inactive”. For the same compound, the inhibition [1] was 63.6%, the inhibition [5] was “Active” and the Activity [12] was 62%. For the same compound, the IC50 [3] was 8.29 µM, the inhibition [6] was “Active” and the Activity [7] was “Active”. For the same compound, the Activity [8] was 17%, the IC50 [2] was 1.18 µM and the inhibition [13] was “inactive”. The Activity [9] was “Active”.
For O=c1cc(/C=C/c2ccc(O)cc2)occ1O, the Activity [10] was 19%, the Activity [4] was “Active” and the inhibition [11] was “inactive”. The inhibition [1] was 68.5%, the inhibition [5] was “Active” and the Activity [12] was 68%. For the same compound, the IC50 [3] was 7.2 µM, the inhibition [6] was “Active” and the Activity [7] was “Active”. For the same compound, the Activity [8] was 14%, the IC50 [2] was 1.94 µM and the inhibition [13] was “inactive”. For the same compound, the Activity [9] was “Active” and the Activity [14] was “Active”.
CN(C)c1ccc(/C=C/c2cc(=O)c(O)co2)cc1 showed an inhibition [1] of 61.2%, an IC50 [3] of 5.92 µM and an IC50 [2] of 3.05 µM.
O=c1cc(/C=C/c2ccc(Cl)cc2)occ1O gave an inhibition [1] of 18% and an IC50 [2] of 1.95 µM.
For O=c1cc(/C=C/c2ccc([N+](=O)[O-])cc2)occ1O, the IC50 [2] was 1.7 µM.
For O=c1cc(/C=C/c2cccc(F)c2)occ1O, the inhibition [1] was 58%, the IC50 [3] was 17.7 µM and the IC50 [2] was 3.45 µM.
